Oligonucleotides are written 5' to 3', each unit as a sugar letter and its base; * is a phosphorothioate linkage, no mark a phosphodiester; rarer units and linkages stand in square brackets, end groups in braces. Plain capitals give the bases only. d = 2'-deoxy (DNA)
Experiments:
human PBMCs = test: Cytokine production by human PBMCs treated with ODNs, MagPix Multi-Plex; format: cell-based; parameters: key to IL-6, IL-12: (↑) indicates a weak but detectable activity; (↑↑) and (↑↑↑) indicate different levels of moderate activities; (↑↑) and (↑↑↑) indicate different levels of moderate activities; (↑↑↑↑) indicates a strong activity; (−) indicates no detectable activity; settings: for IFN-γ / IL-1β / IL-6 / IL-10 / IL-12p40 / IP10 / TNF-α: human PBMC, 24 hrs
Experimental: PBMC from 3 donors were isolated from Buffy Coat (Blood Center of NY). The cells were washed with PBS and re-suspended in RPMI-1640 Media with 5% Human AB Serum, 1% Pen/Strep and 2 mM L-glutamine. The cells were then plated in 96-well plates at 250,000 cells/well. […] After 24 hrs, the supernatant was harvested and tested for cytokine production using MagPix Multi-Plex Technology. The following cytokines were tested: IL-6, IL-10, IL-12p40, IFN-α, IFN-γ, IP-10, IL-1β and TNF-α.

TLR9 = target: T1, TLR9 (Homo sapiens, UniProt Q9NR96); test: NF-κB reporter gene in recombinant TLR9-expressing HEK293 cells; format: cell-based
T1 construct: expressed in transfected cells; host or cells: TLR9 expressing HEK293 reporter cells with a human NF-κB reporter construct
T1 sequence (Q9NR96 26-1032): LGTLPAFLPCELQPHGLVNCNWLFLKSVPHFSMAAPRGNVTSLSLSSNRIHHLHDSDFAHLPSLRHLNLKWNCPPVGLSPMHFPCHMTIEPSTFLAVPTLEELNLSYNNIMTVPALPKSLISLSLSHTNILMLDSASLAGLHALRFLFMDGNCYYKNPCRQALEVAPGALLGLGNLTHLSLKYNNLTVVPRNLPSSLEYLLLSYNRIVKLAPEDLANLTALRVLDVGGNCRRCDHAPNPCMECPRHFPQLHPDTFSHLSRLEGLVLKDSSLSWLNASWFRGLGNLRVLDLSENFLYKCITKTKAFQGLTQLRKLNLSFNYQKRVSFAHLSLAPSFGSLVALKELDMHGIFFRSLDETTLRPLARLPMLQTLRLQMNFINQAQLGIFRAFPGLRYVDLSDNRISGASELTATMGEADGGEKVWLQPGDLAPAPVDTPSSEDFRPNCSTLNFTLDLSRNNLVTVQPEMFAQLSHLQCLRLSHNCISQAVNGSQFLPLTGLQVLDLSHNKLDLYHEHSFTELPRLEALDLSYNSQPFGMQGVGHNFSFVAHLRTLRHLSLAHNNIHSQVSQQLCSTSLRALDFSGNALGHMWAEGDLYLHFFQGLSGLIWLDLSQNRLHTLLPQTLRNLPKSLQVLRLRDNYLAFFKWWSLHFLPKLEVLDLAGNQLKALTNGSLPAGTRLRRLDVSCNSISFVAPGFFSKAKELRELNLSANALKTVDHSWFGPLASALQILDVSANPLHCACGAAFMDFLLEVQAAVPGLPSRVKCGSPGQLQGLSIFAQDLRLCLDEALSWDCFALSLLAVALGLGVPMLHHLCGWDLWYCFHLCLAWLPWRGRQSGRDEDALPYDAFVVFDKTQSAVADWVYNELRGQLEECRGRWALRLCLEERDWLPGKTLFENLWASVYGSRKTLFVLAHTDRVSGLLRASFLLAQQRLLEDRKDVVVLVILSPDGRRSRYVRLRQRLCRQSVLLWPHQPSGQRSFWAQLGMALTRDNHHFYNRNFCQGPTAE
Experimental: FIGS. 16A-B show results of experiments in which recombinant TLR-expressing HEK293 cells carrying an NF-κB reporter gene were incubated with COMPOUND(I), ODN150, ODN2006, or ODN7040 for 48 hours at the indicated concentrations.

[1] = tested on: ulcerative colitis patients; settings: clinical studies, subset of UC patients; cited from earlier work
[2] = PBMC, relative strength, Table 6

ODN150: 5′-G*G*A*ACAGTTCGTCCAT*G*G*C-3′, PO except * = PS; antisense to p65 of NF-kB mRNA; tested clinically for ulcerative colitis (DNA dG*dG*dA*dAdCdAdGdTdTdCdGdTdCdCdAdT*dG*dG*dC)
IL-6, IL-12 (human PBMCs; [2]): ↑ | TNFα, IFNγ (human PBMCs; [2]): —/↑ | IFNα secretion from PBMCs (human PBMCs; any tested concentration between 0.01 μM and 10 μM, FIG. 25): not found to induce | IFN-γ (human PBMCs; high-dose ODN 10 μM): 0.2 pg/mL | IL-1β (human PBMCs; high-dose ODN 10 μM): 0.6 pg/mL | IL-6 (human PBMCs; high-dose ODN 10 μM): 11.8 fold change | IL-10 (human PBMCs; high-dose ODN 10 μM): 1.6 fold change | IL-12p40 (human PBMCs; high-dose ODN 10 μM): 0 pg/mL | IP10 (human PBMCs; high-dose ODN 10 μM): 8.1 fold change | TNF-α (human PBMCs; high-dose ODN 10 μM): 2 fold change | IFN-γ (human PBMCs; low-dose ODN 0.1 μM): 0.2 pg/mL | IL-1β (human PBMCs; low-dose ODN 0.1 μM): 0.2 pg/mL | IL-6 (human PBMCs; low-dose ODN 0.1 μM): 1.2 fold change | IL-10 (human PBMCs; low-dose ODN 0.1 μM): 0.9 fold change | IL-12p40 (human PBMCs; low-dose ODN 0.1 μM): 0 pg/mL | IP10 (human PBMCs; low-dose ODN 0.1 μM): 1.5 fold change | TNF-α (human PBMCs; low-dose ODN 0.1 μM): 1.2 fold change | TLR pathway activation (NF-κB) (TLR9; Reporter Cell, relative strength, Table 6): ↑ ↑ | NF-κB reporter gene activation (TLR9; TLR9-expressing HEK293 cells, 48 hours, FIGS. 16A-B): concentration-dependent NF-kB induction | clinical effect in ulcerative colitis [1]: some moderate beneficial effects

Reference: US20180289692A1, “TLR MODULATORS AND METHODS OF USE” (CELGENE CORPORATION, priority 2015, published 2018)
